Assay results: patent US10745400B2, “Inhibition of BMP signaling, compounds, compositions and uses thereof” (Vanderbilt University, priority 2018, dated 2020)
Substitutions are numbered along the chain they refer to.

Columns and labels:
ALK1/ACVRL1 = ALK1/ACVRL1 (Homo sapiens, UniProt P37023); assay: Kinase assay (33P-ATP filter-binding), ALK1; type: biochemical; details: read-out: Kinase Selectivity ALK1/ACVRL1
In short: (§1)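 After 20 minutes of compound–kinase–substrate preincubation at room temperature in Hepes pH 7.5 buffer (MgCl2, EGTA, Brij35, BSA, vanadate, DTT, 1% DMSO), 33P-ATP was added. Reactions ran 2 hours at room temperature before spotting on P81 ion exchange paper for filter-binding detection.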

ALK2/ACVR1 = biological target: T1, ALK2/ACVR1 (Homo sapiens, UniProt Q04771); assay: Kinase assay (33P-ATP filter-binding), ALK2; type: biochemical; details: 20 mM; read-out: Kinase Selectivity ALK2/ACVR1 (20 mM)
T1 sequence (Q04771 21-509): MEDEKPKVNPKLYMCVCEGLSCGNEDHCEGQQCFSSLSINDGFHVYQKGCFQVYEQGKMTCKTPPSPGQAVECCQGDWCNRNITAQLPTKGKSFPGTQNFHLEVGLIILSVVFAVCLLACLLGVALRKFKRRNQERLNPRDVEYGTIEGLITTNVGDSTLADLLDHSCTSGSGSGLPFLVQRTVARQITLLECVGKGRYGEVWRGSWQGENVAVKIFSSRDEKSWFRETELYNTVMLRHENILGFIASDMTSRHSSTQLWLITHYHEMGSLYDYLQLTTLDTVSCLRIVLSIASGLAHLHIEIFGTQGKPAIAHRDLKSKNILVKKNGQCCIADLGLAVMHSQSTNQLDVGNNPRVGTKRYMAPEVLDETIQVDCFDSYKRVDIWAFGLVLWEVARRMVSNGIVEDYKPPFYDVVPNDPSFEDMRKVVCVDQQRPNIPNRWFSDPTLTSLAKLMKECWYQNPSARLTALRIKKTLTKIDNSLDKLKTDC
Protocol: (§2) The kinase assays were carried out briefly as follows. Substrate was prepared in Base Reaction Buffer (20 mM Hepes (pH 7.5), 10 mM MgCl2, 1 mM EGTA, 0.02% Brij35, 0.02 mg/ml BSA, 0.1 mM Na3VO4, 2 mM DTT, 1% DMSO). The indicated kinases was delivered into the substrate solution and allowed to gently mix. Next, the specific compound was delivered in DMSO into the kinase mixture by Acoustic technology (Echo550; nanoliter range), and allowed to incubate for 20 minutes at room temperature. Next, ^33P-ATP was delivered into the reaction mixture to initiate the reaction and allowed to incubate at room temperature. After 2 hours, the reactions were spotted onto P81 ion exchange paper and the kinase activity is detected by the filter-binding method.

ALK2 (Q207D) = biological target: T2, ALK2 (Q207D) (Homo sapiens, UniProt Q04771, Q207D); assay: Kinase assay (33P-ATP filter-binding), ALK2 Q207D; type: biochemical; details: Q207D mutant, 20 mM; read-out: Kinase Selectivity ALK2 (Q207D, 20 mM)
T2 sequence (Q04771 21-509 Q207D): T1 sequence (Q04771 21-509) with Q187D
Protocol: as §2

ALK2 (R206H) = biological target: T3, ALK2 (R206H) (Homo sapiens, UniProt Q04771, R206H); assay: Kinase assay (33P-ATP filter-binding), ALK2 R206H; type: biochemical; details: R206H mutant, 20 mM; read-out: Kinase Selectivity ALK2 (R206H, 20 mM)
T3 sequence (Q04771 21-509 R206H): T1 sequence (Q04771 21-509) with R186H
Protocol: as §2

ALK3/BMPR1A = ALK3/BMPR1A (Homo sapiens, UniProt P36894); assay: Kinase assay (33P-ATP filter-binding), ALK3; type: biochemical; details: 1 mM; read-out: Kinase Selectivity ALK3/BMPR1A (1 mM)
In short: as §1

[1] = test system: BMP-responsive C2C12 mouse myoblast cells stimulated with BMP4; assay: BMP4 cell assay (Id1 promoter-firefly luciferase reporter); type: cell-based; details: Mus musculus; C2C12 cells, BMP4 50 ng/mL, overnight
Protocol: The BMP4 cell assay were carried out briefly as follows. Stably transfected BMP-responsive C2C12 mouse myoblast cells (containing the Idl promoter-firefly luciferase reporter) were seeded in 96-well plates and incubated overnight with the compounds and BMP4 (50 ng/mL). The cells were then lysed, and cell extracts were then subjected to the firefly luciferase assay using Steady-Glo luciferase assay kit (Promega). The results were normalized to cell titers, as measured using Cell Titer-Glo luminescence assay (Promega). […] Relative activity was quantified by the ratio of firefly to Renilla luciferase activities using the dual luciferase assay kit (Promega).

caALK2 = biological target: T4, caALK2 (Homo sapiens, UniProt Q04771, Q207D); assay: Subtype analysis, C2C12BRA cells transfected with constitutively active caALK2; type: cell-based; details: Primary In Vitro Data, constitutively active ALK2
T4 construct: expressed in transfected cells; host or cells: C2C12BRA cells (mouse myoblast, BMP-responsive reporter)
T4 sequence (Q04771 21-509 Q207D): T1 sequence (Q04771 21-509) with Q187D
Protocol: The BMP4 cell assay were carried out briefly as follows. Stably transfected BMP-responsive C2C12 mouse myoblast cells (containing the Idl promoter-firefly luciferase reporter) were seeded in 96-well plates and incubated overnight with the compounds and BMP4 (50 ng/mL). The cells were then lysed, and cell extracts were then subjected to the firefly luciferase assay using Steady-Glo luciferase assay kit (Promega). The results were normalized to cell titers, as measured using Cell Titer-Glo luminescence assay (Promega). For subtype analysis, C2C12BRA cells were transiently transfected with plasmids (0.1 μg) expressing constitutively active forms of the BMP type I receptors (caALK2, caALK3 or caALK6) using Lipofectamine kit (Invitrogen) in 96 well plates; 0.1 μg of pRL-TK Renilla luciferase (Promega) was used to control for transfection efficiency. Relative activity was quantified by the ratio of firefly to Renilla luciferase activities using the dual luciferase assay kit (Promega).

caALK1 = caALK1 (Homo sapiens, UniProt P37023); assay: Subtype analysis, constitutively active caALK1; type: cell-based; details: Primary In Vitro Data, constitutively active ALK1
Chain of caALK1 (P37023 whole entry Q201D, form open): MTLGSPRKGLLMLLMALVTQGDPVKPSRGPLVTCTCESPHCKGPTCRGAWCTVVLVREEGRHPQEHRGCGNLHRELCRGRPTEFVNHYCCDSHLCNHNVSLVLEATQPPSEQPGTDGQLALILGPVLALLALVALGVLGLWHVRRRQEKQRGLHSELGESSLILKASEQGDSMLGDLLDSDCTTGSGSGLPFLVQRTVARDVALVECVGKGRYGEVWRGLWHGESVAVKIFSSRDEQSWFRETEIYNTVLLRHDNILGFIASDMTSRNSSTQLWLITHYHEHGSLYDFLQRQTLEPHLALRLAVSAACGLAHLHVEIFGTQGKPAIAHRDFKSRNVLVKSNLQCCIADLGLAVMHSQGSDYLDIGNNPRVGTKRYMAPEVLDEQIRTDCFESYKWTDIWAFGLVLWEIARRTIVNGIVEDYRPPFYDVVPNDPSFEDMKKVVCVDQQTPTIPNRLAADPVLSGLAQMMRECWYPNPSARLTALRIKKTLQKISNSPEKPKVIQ

Chain of ALK1/ACVRL1 (P37023 22-503): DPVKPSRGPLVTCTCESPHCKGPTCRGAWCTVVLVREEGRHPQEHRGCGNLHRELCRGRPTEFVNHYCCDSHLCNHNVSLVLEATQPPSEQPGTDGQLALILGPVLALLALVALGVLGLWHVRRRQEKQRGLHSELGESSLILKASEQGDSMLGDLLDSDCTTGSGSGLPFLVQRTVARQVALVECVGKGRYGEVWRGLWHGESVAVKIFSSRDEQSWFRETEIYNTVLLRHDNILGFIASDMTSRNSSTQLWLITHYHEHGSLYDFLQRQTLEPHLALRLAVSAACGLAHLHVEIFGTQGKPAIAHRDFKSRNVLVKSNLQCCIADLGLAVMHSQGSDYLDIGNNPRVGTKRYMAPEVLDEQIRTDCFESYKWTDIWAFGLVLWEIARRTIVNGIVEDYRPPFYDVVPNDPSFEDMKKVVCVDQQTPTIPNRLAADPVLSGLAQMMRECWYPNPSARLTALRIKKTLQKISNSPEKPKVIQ
Chain of ALK3/BMPR1A (P36894 24-532): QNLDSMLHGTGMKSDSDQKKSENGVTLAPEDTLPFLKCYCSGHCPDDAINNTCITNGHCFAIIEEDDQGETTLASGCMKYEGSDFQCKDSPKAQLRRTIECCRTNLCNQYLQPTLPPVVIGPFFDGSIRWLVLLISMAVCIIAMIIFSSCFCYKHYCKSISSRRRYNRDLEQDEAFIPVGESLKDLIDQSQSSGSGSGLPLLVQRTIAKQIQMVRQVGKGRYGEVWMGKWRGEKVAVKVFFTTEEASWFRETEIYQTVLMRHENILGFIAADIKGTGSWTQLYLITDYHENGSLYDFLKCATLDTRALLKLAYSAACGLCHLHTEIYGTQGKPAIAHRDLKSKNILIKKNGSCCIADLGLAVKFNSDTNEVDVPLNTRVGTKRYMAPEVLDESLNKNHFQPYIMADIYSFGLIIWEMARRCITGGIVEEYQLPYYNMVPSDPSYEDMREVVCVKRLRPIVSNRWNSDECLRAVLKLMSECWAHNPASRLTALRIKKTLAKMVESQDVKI

CN1CCN(c2ccc(-c3ccn4c(-c5ccnc6ncccc56)cnc4c3)cc2)CC1 [Compound 29]
IC50 (ALK1/ACVRL1): 767 nM
IC50 (ALK2/ACVR1): 84.9 nM
IC50 (ALK2 (Q207D)): 77.6 nM
IC50 (ALK2 (R206H)): 88.2 nM
IC50 (ALK3/BMPR1A): 17.4 nM
IC50 [1]: 112 nM
IC50 (caALK2): 16 nM
IC50 (caALK1): 178 nM

Cc1cc(-c2cnc3cc(-c4ccc(N5CCN(C)CC5)cc4)ccn23)c2cccnc2n1 [Compound 28]
IC50 (ALK1/ACVRL1): 1200 nM
IC50 (ALK2/ACVR1): 114 nM
IC50 (ALK2 (Q207D)): 79.1 nM
IC50 (ALK2 (R206H)): 105 nM
IC50 (ALK3/BMPR1A): < 5.08 nM
IC50 [1]: 66 nM
IC50 (caALK2): 44 nM
IC50 (caALK1): 189 nM
